According to ChEMBL document CHEMBL5653619, “A potent, selective and cell-active allosteric inhibitor of protein arginine methyltransferase 3 (PRMT3)” (Angew Chem Int Ed Engl, 2015):

What was measured:
U2OS [1] = experiment: Cytotoxicity against human U2OS cells assessed as reduction in cell viability incubated for 24 hrs by alamar blue assay; type: toxicity, cell-based
[2] = Drug concentration in CD-1 mouse plasma at 30 mg/kg, ip measured at 6 hrs post injection; type: ADME, organism-based
HEK293 [3] = experiment: Cytotoxicity against HEK293 cells assessed as reduction in cell viability at 50 to 100 uM incubated for 72 hrs by alamar blue assay; type: toxicity, cell-based; conditions: human, hek293, 72 h, dose 50-100 µM
HFF [4] = experiment: Cytotoxicity against HFF cells assessed as reduction in cell viability incubated for 24 hrs by alamar blue assay; type: toxicity, cell-based; conditions: human
LNCaP [5] = experiment: Cytotoxicity against human LNCaP cells assessed as reduction in cell viability at 50 to 100 uM incubated for 72 hrs by alamar blue assay; type: toxicity, cell-based; conditions: dose 50-100 µM
HEK293 [6] = experiment: Cytotoxicity against HEK293 cells assessed as reduction in cell viability incubated for 24 hrs by alamar blue assay; type: toxicity, cell-based; conditions: human, hek293, 24 h
[7] = target: T1, 5-hydroxytryptamine receptor 2B (Homo sapiens, UniProt P41595); experiment: Inhibition of [3H]LSD binding to 5-HT2B receptor (unknown origin)
T1 sequence (P41595 whole entry): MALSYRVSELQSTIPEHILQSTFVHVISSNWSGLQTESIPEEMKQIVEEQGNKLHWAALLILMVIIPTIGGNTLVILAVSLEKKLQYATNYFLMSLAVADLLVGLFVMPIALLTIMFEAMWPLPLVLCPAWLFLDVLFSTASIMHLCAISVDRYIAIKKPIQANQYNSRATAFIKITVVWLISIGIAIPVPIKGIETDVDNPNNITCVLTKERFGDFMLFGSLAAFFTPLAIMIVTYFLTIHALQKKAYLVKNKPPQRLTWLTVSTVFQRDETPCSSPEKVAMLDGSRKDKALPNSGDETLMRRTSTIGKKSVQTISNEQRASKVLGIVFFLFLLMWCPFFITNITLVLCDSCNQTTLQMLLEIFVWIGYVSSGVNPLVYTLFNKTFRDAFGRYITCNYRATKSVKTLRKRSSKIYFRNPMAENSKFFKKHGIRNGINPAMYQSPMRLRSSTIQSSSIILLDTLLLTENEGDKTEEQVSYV

[8] = target: T1, 5-hydroxytryptamine receptor 2B; conditions: dose 32000.0 nM
Description: Inhibition of [3H]LSD binding to 5-HT2B receptor (unknown origin) assessed as maximum inhibition at 32000 nM relative to control

[9] = Toxicity in CD-1 mouse assessed as drug tolerance at 30 mg/kg, ip measured for 6 hrs; type: organism-based; conditions: in vivo
[10] = Half life in CD-1 mouse at 30 mg/kg, ip measured for 6 hrs; type: ADME, organism-based; conditions: in vivo
MCF7 [11] = experiment: Cytotoxicity against human MCF7 cells assessed as reduction in cell viability at 50 to 100 uM incubated for 72 hrs by alamar blue assay; type: toxicity, cell-based; conditions: mcf7, 72 h, dose 50-100 µM
U2OS [12] = experiment: Cytotoxicity against human U2OS cells assessed as reduction in cell viability at 50 to 100 uM incubated for 72 hrs by alamar blue assay; type: toxicity, cell-based; conditions: dose 50-100 µM
MDA-MB-231 [13] = experiment: Cytotoxicity against human MDA-MB-231 cells assessed as reduction in cell viability incubated for 24 hrs by alamar blue assay; type: toxicity, cell-based; conditions: mda-mb-231, 24 h
MDA-MB-231 [14] = experiment: Cytotoxicity against human MDA-MB-231 cells assessed as reduction in cell viability at 50 to 100 uM incubated for 72 hrs by alamar blue assay; type: toxicity, cell-based; conditions: mda-mb-231, 72 h, dose 50-100 µM
LNCaP [15] = experiment: Cytotoxicity against human LNCaP cells assessed as reduction in cell viability incubated for 24 hrs by alamar blue assay; type: toxicity, cell-based
HFF [16] = experiment: Cytotoxicity against HFF cells assessed as reduction in cell viability at 50 to 100 uM incubated for 72 hrs by alamar blue assay; type: toxicity, cell-based; conditions: human, dose 50-100 µM
[17] = target: KV channel (voltage-gated potassium channel family) (Homo sapiens, UniProt O43525+O43526+O95259+P16389+P17658+P22001+P22459+P22460+P48547+P51787+P56696+Q03721+Q09470+Q12809+Q14003+Q14721+Q16322+Q6PIU1+Q8NCM2+Q8TAE7+Q8TDN1+Q8TDN2+Q92953+Q96KK3+Q96L42+Q96PR1+Q96RP8+Q9BQ31+Q9H252+Q9H3M0+Q9NR82+Q9NS40+Q9NSA2+Q9NZV8+Q9UIX4+Q9UJ96+Q9UK17+Q9ULD8+Q9ULS6+Q9UQ05); experiment: Inhibition of KV channel (unknown origin) at 10 uM by antagonist ligand based assay relative to control; type: protein assay
MCF7 [18] = experiment: Cytotoxicity against human MCF7 cells assessed as reduction in cell viability incubated for 24 hrs by alamar blue assay; type: toxicity, cell-based; conditions: mcf7, 24 h

Row | SMILES | Activity (U2OS [1]) | concentration at 6 h [2] | Activity (HEK293 [3]) | Activity (HFF [4]) | Activity (LNCaP [5]) | Activity (HEK293 [6]) | Ki [7] | Imax [8] | Activity [9] | half-life [10] | Activity (MCF7 [11]) | Activity (U2OS [12]) | Activity (MDA-MB-231 [13]) | Activity (MDA-MB-231 [14]) | Activity (LNCaP [15]) | Activity (HFF [16]) | inhibition at 10 µM [17] | Activity (MCF7 [18])
1 | O=C(NCC(=O)N1CCCC1)Nc1ccc2cnccc2c1 | Non-Toxic | 208 nM | Toxic | Non-Toxic | Toxic | Non-Toxic | > 15 µM | 50% | Non-Toxic | ~1 h | Toxic | Toxic | Non-Toxic | Toxic | Non-Toxic | Toxic | -12% | Non-Toxic
2 | Cn1ccc2cc3c(cc21)CCN3C(=O)Nc1cccnc1 | – | – | – | – | – | – | 0.0185 µM | – | – | – | – | – | – | – | – | – | – | –
